Molecules are shown by their SMILES.

In general, IC50 refers to the midpoint of a concentration-inhibition curve.

In this assay the test system is NCIH929.1 cells. Briefly: Cell viability assay for Table 2 (CellTiter-Glo 2.0, ATP quantification, 96 hr). Format: cell-based. Particulars: 96 h, NCIH929.1 cell viability, 96 hr, top concentration 1 μM, 14 points half log titration; read-out: IC50. From the text: Cell Viability Assay for Table 2
CellTiter-Glo® 2.0 Assay was purchased from Promega (Madison, Wis., USA). NCIH929.1 cell line was purchased from ATCC (Manassas, Va., USA). Cell culture flasks and 384-well microplates were acquired from VWR (Radnor, Pa., USA).
In general terms: Cellular ATP, detected with luciferase, serves as a proxy for viable cell number.

As to `CC(C)(C)OC(=O)N1CCC(n2cc(Nc3ccc4c5c(cccc35)C(=O)N4C3CCC(=O)NC3=O)c(Cl)n2)CC1` (stereo not shown) [Compound 250, tert-butyl 4-[3-chloro-4-[[1-(2,6-dioxo-3-piperidyl)-2-oxo-benzo[cd]indol-6-yl]amino]pyrazol-1-yl]piperidine-1-carboxylate], the IC50 was < 100 nM. `CC1(C(=O)N2CCC(n3cc(Nc4ccc5c6c(cccc46)C(=O)N5C4CCC(=O)NC4=O)c(Cl)n3)CC2)CCC1` (stereo not shown) [Compound 251, 3-[6-[[3-chloro-1-[1-(1-methylcyclobutanecarbonyl)-4-piperidyl]pyrazol-4-yl]amino]-2-oxo-benzo[cd]indol-1-yl]piperidine-2,6-dione]: the IC50 was < 100 nM. As for `CN(c1cnn(C2CCN(C(=O)OC(C)(C)C)CC2)c1)c1ccc2c3c(cccc13)C(=O)N2C1CCC(=O)NC1=O` (stereo not shown) [Compound 252, tert-butyl 4-[4-[[1-(2,6-dioxo-3-piperidyl)-2-oxo-benzo[cd]indol-6-yl]-methyl-amino]pyrazol-1-yl]piperidine-1-carboxylate], the figure is < 100 nM; as for `CC1(C(=O)N2CCC(n3cc(Cc4ccc5c6c(cccc46)C(=O)N5C4CCC(=O)NC4=O)c4cccnc43)CC2)CCC1` (stereo not shown) [Compound 253, 3-[6-[[1-[1-(1-methylcyclobutanecarbonyl)-4-piperidyl]pyrrolo[2,3-b]pyridin-3-yl]methyl]-2-oxo-benzo[cd]indol-1-yl]piperidine-2,6-dione], < 1 nM.

Consider `O=C1CCC(N2C(=O)c3cccc4c(Cc5ccc(CN6CCC(Oc7ccc(F)cc7)CC6)cc5)ccc2c34)C(=O)N1` (stereo not shown) [Compound 258, 3-(6-(4-((4-(4-fluorophenoxy)piperidin-1-yl)methyl)benzyl)-2-oxobenzo[cd]indol-1(2H)-yl)piperidine-2,6-dione], for which the IC50 was < 1 nM.

In the case of `CC(C)(C)C[C@H]1CC[C@@H](n2cc(Cc3ccc4c5c(cccc35)C(=O)N4C3CCC(=O)NC3=O)cn2)CC1` (stereo partly shown) [Compound 259, 3-(6-((1-((1r,4r)-4-neopentylcyclohexyl)-1H-pyrazol-4-yl)methyl)-2-oxobenzo[cd]indol-1(2H)-yl)piperidine-2,6-dione], the IC50 is < 1 nM. Next, `CC(C)(C)C[C@H]1CC[C@H](n2cc(Cc3ccc4c5c(cccc35)C(=O)N4C3CCC(=O)NC3=O)cn2)CC1` (stereo partly shown) [Compound 260, 3-(6-((1-((1s,4s)-4-neopentylcyclohexyl)-1H-pyrazol-4-yl)methyl)-2-oxobenzo[cd]indol-1(2H)-yl)piperidine-2,6-dione]: < 1 nM. As for `CN(C(=O)N1CCC(n2cc(Cc3ccc4c5c(cccc35)C(=O)N4C3CCC(=O)NC3=O)cn2)CC1)C1CC1` (stereo not shown) [Compound 261, N-cyclopropyl-4-(4-((1-(2,6-dioxopiperidin-3-yl)-2-oxo-1,2-dihydrobenzo[cd]indol-6-yl)methyl)-1H-pyrazol-1-yl)-N-methylpiperidine-1-carboxamide], the figure is < 1 nM; as for `N#Cc1ccc(N2CCN(C3(c4ccc(Cc5ccc6c7c(cccc57)C(=O)N6C5CCC(=O)NC5=O)cc4)CC3)CC2)c(F)c1` (stereo not shown) [Compound 262, 4-[4-(1-{4-[1-(2,6-Dioxo-piperidin-3-yl)-2-oxo-1,2-dihydro-benzo[cd]indol-6-ylmethyl]-phenyl}-cyclopropyl)-piperazin-1-yl]-3-fluoro-benzonitrile], < 1 nM; as for `CC1(C(=O)N2CCN(C3(c4ccc(Cc5ccc6c7c(cccc57)C(=O)N6C5CCC(=O)NC5=O)cc4)CC3)CC2)CCC1` (stereo not shown) [Compound 263, 3-[6-(4-{1-[4-(1-Methyl-cyclobutanecarbonyl)-piperazin-1-yl]-cyclopropyl}-benzyl)-2-oxo-2H-benzo[cd]indol-1-yl]-piperidine-2,6-dione], < 1 nM. `O=C1CCC(N2C(=O)c3cccc4c(Cc5ccc(C6(N7CCN(c8ccccc8F)CC7)CC6)cc5)ccc2c34)C(=O)N1` (stereo not shown) [Compound 264, 3-[6-(4-{1-[4-(2-Fluoro-phenyl)-piperazin-1-yl]-cyclopropyl}-benzyl)-2-oxo-2H-benzo[cd]indol-1-yl]-piperidine-2,6-dione]: the IC50 was < 1 nM. Turning to `CN1CC2CC(C(=O)N3CCC(n4cc(Cc5ccc6c7c(cccc57)C(=O)N6C5CCC(=O)NC5=O)cn4)CC3)(C2)C1` (stereo not shown) [Compound 265, 3-(6-((1-(1-(3-methyl-3-azabicyclo[3.1.1]heptane-1-carbonyl)piperidin-4-yl)-1H-pyrazol-4-yl)methyl)-2-oxobenzo[cd]indol-1(2H)-yl)piperidine-2,6-dione], the IC50 is < 1 nM. As for `CC(C)(C)OC(=O)N1CCC(n2cc(C(O)c3ccc4c5c(cccc35)C(=O)N4C3CCC(=O)NC3=O)cn2)CC1` (stereo not shown) [Compound 266, tert-butyl 4-[4-[[1-(2,6-dioxo-3-piperidyl)-2-oxo-benzo[cd]indol-6-yl]-hydroxy-methyl]pyrazol-1-yl]piperidine-1-carboxylate], the figure is < 1 nM.

Consider `O=C1CCC(N2C(=O)c3cccc4c(Cc5ccc(CN6CCC7(CCCO7)CC6)cc5)ncc2c34)C(=O)N1` (stereo not shown) [Compound 267, 3-[24-[[4-(1-oxa-8-azaspiro[4.5]decan-8-ylmethyl)phenyl]methyl]-28-oxo-31,34-diazatricyclododeca-,2(22),7(23),21(25),24(31)-pentaen-34-yl]piperidine-2,6-dione], for which the IC50 was < 1 nM.

With `O=C1CCC(N2C(=O)c3cccc4c(Cc5ccc(CN6CCOCC6)nc5)ccc2c34)C(=O)N1` (stereo not shown) [Compound 269, 3-[6-[[6-(morpholinomethyl)-3-pyridyl]methyl]-2-oxo-benzo[cd]indol-1-yl]piperidine-2,6-dione], the IC50 is < 1 nM. In the case of `CC1(C(=O)N2CCC(c3cnn(Cc4ccc5c6c(cccc46)C(=O)N5C4CCC(=O)NC4=O)c3)CC2)CCC1` (stereo not shown) [Compound 270, 3-[6-[[4-[1-(1-methylcyclobutanecarbonyl)-4-piperidyl]pyrazol-1-yl]methyl]-2-oxo-benzo[cd]indol-1-yl]piperidine-2,6-dione], the IC50 is < 1 nM. Next, `CC1(C(=O)N2CCC(C)(n3cc(Cc4ccc5c6c(cccc46)C(=O)N5C4CCC(=O)NC4=O)cn3)CC2)CCN(c2ccccn2)CC1` (stereo not shown) [Compound 271, 3-(6-((1-(4-methyl-1-(4-methyl-1-(pyridin-2-yl)piperidine-4-carbonyl)piperidin-4-yl)-1H-pyrazol-4-yl)methyl)-2-oxobenzo[cd]indol-1(2H)-yl)piperidine-2,6-dione]: < 1 nM. Consider `CC1(n2cc(Cc3ccc4c5c(cccc35)C(=O)N4C3CCC(=O)NC3=O)cn2)CCN(C(=O)C2CCN(c3ccccn3)CC2)CC1` (stereo not shown) [Compound 272, 3-[6-[[1-[4-methyl-1-[1-(2-pyridyl)piperidine-4-carbonyl]-4-piperidyl]pyrazol-4-yl]methyl]-2-oxo-benzo[cd]indol-1-yl]piperidine-2,6-dione], for which the IC50 is < 1 nM. Next, `O=C1CCC(N2C(=O)c3cccc4c(Oc5ccc(CN6CCOCC6)cc5)ccc2c34)C(=O)N1` (stereo not shown) [Compound 273, 3-(6-(4-(morpholinomethyl)phenoxy)-2-oxobenzo[cd]indol-1(2H)-yl)piperidine-2,6-dione]: < 100 nM; `CC1(CN2CCC(n3cc(Cc4ccc5c6c(cccc46)C(=O)N5C4CCC(=O)NC4=O)cn3)CC23CC3)CCC1` (stereo not shown) [Compound 275, 3-[6-[[1-[4-[(1-methylcyclobutyl)methyl]-4-azaspiro[2.5]octan-7-yl]pyrazol-4-yl]methyl]-2-oxo-benzo[cd]indol-1-yl]piperidine-2,6-dione]: < 1 nM; `CC(C)(C)OC(=O)N1CCC(c2ccc3c4c(cccc24)C(=O)N3C2CCC(=O)NC2=O)CC1` (stereo not shown) [Compound 276, tert-butyl 4-[1-(2,6-dioxo-3-piperidyl)-2-oxo-benzo[cd]indol-6-yl]piperidine-1-carboxylate]: > 999 nM. For the molecule `O=C1CCC(N2C(=O)c3cccc4c(Cc5ccccc5)ccc2c34)C(=O)N1` (stereo not shown) [Compound 277, 3-(6-benzyl-2-oxo-benzo[cd]indol-1-yl)piperidine-2,6-dione], the IC50 is < 1 nM. As for `O=C1CCC(N2C(=O)c3cccc4c(Cc5ccc(CN6CCOCC6)c(F)c5)ccc2c34)C(=O)N1` (stereo not shown) [Compound 278, 3-[6-{[3-fluoro-4-(morpholinomethyl)phenyl]methyl}-2-oxo-benzo[cd]indol-1-yl]piperidine-2,6-dione], the figure is < 1 nM; as for `N#Cc1ccc(N2CCN(Cc3ccc(Cc4ccc5c6c(cccc46)C(=O)N5C4CCC(=O)NC4=O)cn3)CC2)c(F)c1` (stereo not shown) [Compound 279, 4-[4-[[5-[[1-(2,6-dioxo-3-piperidyl)-2-oxo-benzo[cd]indol-6-yl]methyl]-2-pyridyl]methyl]piperazin-1-yl]-3-fluoro-benzonitrile], < 1 nM; as for `Cc1cc(Cc2ccc3c4c(cccc24)C(=O)N3C2CCC(=O)NC2=O)ccc1CN1CCN(c2ccccc2F)CC1` (stereo not shown) [Compound 286, 3-[6-[[4-[[4-(2-fluorophenyl)piperazin-1-yl]methyl]-3-methyl-phenyl]methyl]-2-oxo-benzo[cd]indol-1-yl]piperidine-2,6-dione], < 1 nM.

Consider `CN(C)C1(C(=O)N2CCC(n3cc(Cc4ccc5c6c(cccc46)C(=O)N5C4CCC(=O)NC4=O)cn3)CC2)CCC1` (stereo not shown) [Compound 287, 3-[6-[[1-[1-[1-(dimethylamino)cyclobutanecarbonyl]-4-piperidyl]pyrazol-4-yl]methyl]-2-oxo-benzo[cd]indol-1-yl]piperidine-2,6-dione], for which the IC50 is < 1 nM.

In the case of `O=C1CCC(N2C(=O)c3cccc4c(Cc5cnn(C6CCN(C7CC8(CCC8)C7)CC6)c5)ccc2c34)C(=O)N1` (stereo not shown) [Compound 288, 3-[2-oxo-6-[[1-(1-spiro[3.3]heptan-2-yl-4-piperidyl)pyrazol-4-yl]methyl]benzo[cd]indol-1-yl]piperidine-2,6-dione], the IC50 is < 1 nM. On to `CC1(C(=O)N2CCC(n3cc(Cc4cnc5c6c(cccc46)C(=O)N5C4CCC(=O)NC4=O)cn3)CC2)CCC1` (stereo not shown) [Compound 289, 3-[20-[[1-[1-(1-methylcyclobutanecarbonyl)-4-piperidyl]pyrazol-4-yl]methyl]-26-oxo-30,35-diazatricyclododeca-1,3(18),5(20),17(21),22(30)-pentaen-35-yl]piperidine-2,6-dione], for which the IC50 was < 100 nM.

(Values after patent publication US20230082430A1 (C4 Therapeutics, Inc., priority 2019, published 2023).)
